The source made the active and inactive calls. The rule behind the calls is not given here.
Columns and labels:
[1] = tested on: Cell membrane; assay: Disruption of membrane integrity in Acinetobacter baumannii ATCC 17978 assessed as increase in PI uptake at 16 ug/ml measured after 15 mins by SYTO9/PI staining based fluorometric analysis; conditions: dose 16.0 µg/ml
[2] = tested on: Cell membrane; assay: Disruption of membrane integrity in Staphylococcus aureus ATCC 25923 assessed as increase in PI uptake at 16 ug/ml measured after 1 hr by SYTO9/PI staining based fluorometric analysis; conditions: dose 16.0 µg/ml
[3] = Hemolytic activity against human RBC at 1 ug/ml incubated for 30 mins (reference value: 0%); format: toxicity, cell-based, Erythrocyte; conditions: human red blood cells (erythrocytes), at 1 µg/mL, read-out: Activity
[4] = Apparent permeability of the compound across bacterial inner membrane mimic POPE/POPG (6:4) in PBS buffer assessed as membrane retention at pH 7.4 incubated for 5 hrs by PAMPA based UV-Vis spectrophotometric analysis; format: ADME, cell membranes; conditions: pH 7.4, 5 h
[5] = tested on: Cell membrane; assay: Disruption of membrane integrity in Enterococcus faecalis ATCC 19433 assessed as increase in PI positive cells at 16 ug/ml measured after 1 hr by SYTO9/PI staining based confocal laser scanning microscope analysis; format: subcellular; conditions: dose 16.0 µg/ml
[6] = tested on: Cell membrane; assay: Disruption of membrane integrity in Staphylococcus aureus ATCC 25923 assessed as increase in PI uptake at 16 ug/ml measured every 15 mins for 6 hrs by SYTO9/PI staining based fluorometric analysis; format: subcellular; conditions: dose 16.0 µg/ml
[7] = tested on: Cell membrane; assay: Disruption of membrane integrity in Enterococcus faecalis ATCC 19433 assessed as increase in PI uptake at 16 ug/ml measured after 15 mins by SYTO9/PI staining based fluorometric analysis; conditions: dose 16.0 µg/ml
[8] = Apparent permeability of the compound across bacterial inner membrane mimic PC-phospholipids in PBS buffer at pH 7.4 incubated for 5 hrs by PAMPA based UV-Vis spectrophotometric analysis; format: ADME
[9] = tested on: Pseudomonas aeruginosa; assay: Antibacterial activity against Pseudomonas aeruginosa ATCC 27853 assessed as bacterial growth inhibition incubated for 18 hrs by micro-dilution broth method; format: functional
[10] = tested on: Cell membrane; assay: Disruption of membrane integrity in Bacillus subtilis ATCC 6633 assessed as increase in PI uptake at 16 ug/ml measured after 15 mins by SYTO9/PI staining based fluorometric analysis; conditions: dose 16.0 µg/ml
[11] = tested on: Streptococcus pyogenes; assay: Antibacterial activity against Streptococcus pyogenes ATCC 12344 assessed as bacterial growth inhibition incubated for 18 hrs by micro-dilution broth method; format: functional
[12] = tested on: Cell membrane; assay: Disruption of membrane integrity in Pseudomonas aeruginosa ATCC 27853 assessed as increase in PI uptake at 16 ug/ml measured every 15 mins for 6 hrs by SYTO9/PI staining based fluorometric analysis; conditions: dose 16.0 µg/ml
[13] = tested on: Cell membrane; assay: Disruption of membrane integrity in Bacillus subtilis ATCC 6633 assessed as increase in PI uptake at 16 ug/ml measured after 1 hr by SYTO9/PI staining based fluorometric analysis; format: subcellular; conditions: dose 16.0 µg/ml
[14] = tested on: Cell membrane; assay: Disruption of membrane integrity in Acinetobacter baumannii ATCC 17978 assessed as increase in PI uptake at 16 ug/ml measured after 1 hr by SYTO9/PI staining based fluorometric analysis; format: subcellular; conditions: dose 16.0 µg/ml
[15] = Hemolytic activity against human RBC at 2 ug/ml incubated for 30 mins (reference value: 0%); format: toxicity, cell-based, Erythrocyte; conditions: human red blood cells (erythrocytes), at 2 µg/mL, read-out: Activity
[16] = tested on: Cell membrane; assay: Disruption of membrane integrity in Escherichia coli MG1655 assessed as increase in PI uptake at 16 ug/ml measured every 15 mins for 6 hrs by SYTO9/PI staining based fluorometric analysis; conditions: dose 16.0 µg/ml
[17] = tested on: Lipid bilayer; assay: Binding affinity to bacterial membrane mimic POPG large unilamellar vesicle assessed as hyperchromic shift at 125 uM measured after 1 hr by UV-Vis spectrophotometric analysis
[18] = tested on: Cell membrane; assay: Disruption of membrane integrity in Bacillus subtilis ATCC 6633 assessed as increase in PI positive cells at 16 ug/ml measured after 1 hr by SYTO9/PI staining based confocal laser scanning microscope analysis; format: subcellular; conditions: dose 16.0 µg/ml
[19] = Hemolytic activity against human RBC at 4 ug/ml incubated for 30 mins (reference value: 0%); format: toxicity, cell-based, Erythrocyte; conditions: human red blood cells (erythrocytes), at 4 µg/mL, read-out: Activity
[20] = Hemolytic activity against human RBC at 64 ug/ml incubated for 30 mins (reference value: 0%); format: toxicity, cell-based, Erythrocyte; conditions: human red blood cells (erythrocytes), at 64 µg/mL, read-out: Activity
[21] = tested on: Cell membrane; assay: Disruption of membrane integrity in Staphylococcus aureus ATCC 25923 assessed as increase in PI positive cells at 16 ug/ml measured after 1 hr by SYTO9/PI staining based confocal laser scanning microscope analysis; format: subcellular; conditions: dose 16.0 µg/ml
[22] = tested on: Lipid bilayer; assay: Binding affinity to bacterial membrane mimic POPG large unilamellar vesicle assessed as bathochromic shift at 125 uM measured at t = 0 by UV-Vis spectrophotometric analysis
[23] = Hemolytic activity against human RBC at 8 ug/ml incubated for 30 mins (reference value: 0%); format: toxicity, cell-based, Erythrocyte; conditions: human red blood cells (erythrocytes), at 8 µg/mL, read-out: Activity
[24] = Apparent permeability of the compound across bacterial inner membrane mimic PC-phospholipids in PBS buffer assessed as membrane retention at pH 7.4 incubated for 5 hrs by PAMPA based UV-Vis spectrophotometric analysis; format: ADME, cell membranes; conditions: pH 7.4, 5 h
[25] = Hemolytic activity against human RBC at 16 ug/ml incubated for 30 mins relative to control; format: toxicity, cell-based, Erythrocyte; conditions: human red blood cells (erythrocytes), at 16 µg/mL, read-out: Activity
[26] = Apparent permeability of the compound across bacterial inner membrane mimic pure POPG in PBS buffer assessed as membrane retention at pH 7.4 incubated for 5 hrs by PAMPA based UV-Vis spectrophotometric analysis; format: ADME, cell membranes; conditions: pH 7.4, 5 h
[27] = tested on: Cell membrane; assay: Disruption of membrane integrity in Acinetobacter baumannii ATCC 17978 assessed as increase in PI positive cells at 16 ug/ml measured after 1 hr by SYTO9/PI staining based confocal laser scanning microscope analysis; conditions: dose 16.0 µg/ml
[28] = tested on: Bacillus subtilis; assay: Antibacterial activity against Bacillus subtilis ATCC 6633 assessed as bacterial growth inhibition incubated for 18 hrs by CLSI based micro-dilution broth method; format: functional
[29] = Apparent permeability of the compound across bacterial inner membrane mimic POPE/POPG (6:4) in PBS buffer at pH 7.4 incubated for 5 hrs by PAMPA based UV-Vis spectrophotometric analysis; format: ADME
[30] = tested on: Staphylococcus aureus; assay: Antibacterial activity against Staphylococcus aureus ATCC 25923 assessed as bacterial growth inhibition incubated for 18 hrs by micro-dilution broth method; format: functional
[31] = tested on: Enterococcus faecalis; assay: Antibacterial activity against Enterococcus faecalis ATCC 19433 assessed as bacterial growth inhibition incubated for 18 hrs by micro-dilution broth method; format: functional
[32] = tested on: Cell membrane; assay: Disruption of membrane integrity in Escherichia coli MG1655 assessed as increase in PI uptake at 16 ug/ml measured after 1 hr by SYTO9/PI staining based fluorometric analysis; format: subcellular; conditions: dose 16.0 µg/ml
[33] = tested on: Escherichia coli; assay: Antibacterial activity against Escherichia coli CCUG assessed as bacterial growth inhibition incubated for 18 hrs by micro-dilution broth method; format: functional
[34] = tested on: Acinetobacter baumannii; assay: Antibacterial activity against Acinetobacter baumannii ATCC 17978 assessed as bacterial growth inhibition incubated for 18 hrs by micro-dilution broth method; format: functional
[35] = Apparent permeability of the compound across bacterial inner membrane mimic pure POPG in PBS buffer at pH 7.4 incubated for 5 hrs by PAMPA based UV-Vis spectrophotometric analysis; format: ADME
[36] = tested on: Klebsiella pneumoniae; assay: Antibacterial activity against Klebsiella pneumoniae ATCC 13833 assessed as bacterial growth inhibition incubated for 18 hrs by micro-dilution broth method; format: functional
[37] = tested on: Cell membrane; assay: Disruption of membrane integrity in Enterococcus faecalis ATCC 19433 assessed as increase in PI uptake at 16 ug/ml measured after 1 hr by SYTO9/PI staining based fluorometric analysis; format: subcellular; conditions: dose 16.0 µg/ml
[38] = tested on: Cell membrane; assay: Disruption of membrane integrity in Pseudomonas aeruginosa ATCC 27853 assessed as increase in PI positive cells at 16 ug/ml measured after 1 hr by SYTO9/PI staining based confocal laser scanning microscope analysis; format: subcellular; conditions: dose 16.0 µg/ml
[39] = tested on: Cell membrane; assay: Disruption of membrane integrity in Escherichia coli MG1655 assessed as increase in PI positive cells at 16 ug/ml measured after 1 hr by SYTO9/PI staining based confocal laser scanning microscope analysis; format: subcellular; conditions: dose 16.0 µg/ml
[40] = tested on: Cell membrane; assay: Disruption of membrane integrity in Pseudomonas aeruginosa ATCC 27853 assessed as increase in PI uptake at 16 ug/ml measured after 1 hr by SYTO9/PI staining based fluorometric analysis; format: subcellular; conditions: dose 16.0 µg/ml
[41] = Hemolytic activity against human RBC at 32 ug/ml incubated for 30 mins (reference value: 0%); format: toxicity, cell-based, Erythrocyte; conditions: human red blood cells (erythrocytes), at 32 µg/mL, read-out: Activity

N=C(N)NCCCCCCCCN(CCCCCCCCN)C(=O)N(CCCCCCCCN)CCCCCCCCNC(=N)N.O=C(O)C(F)(F)F
Activity [1]: Active
Activity [2]: Active
hemolysis at 0.5 h, 1 ug/ml [3]: 0%
R% [4]: 47.3%
Activity [5]: Active
Activity [6]: Active
Activity [7]: Active
Papp at 5 h [8]: 0.21 ×10⁻⁶ cm/s
MIC [9]: 32 µg/mL
Activity [10]: Active
MIC [11]: 0.25 µg/mL
Activity [12]: Active
Activity [13]: Active
Activity [14]: Active
hemolysis at 0.5 h, 2 ug/ml [15]: 0%
Activity [16]: Active
Activity [17]: Active
Activity [18]: Active
hemolysis at 0.5 h, 4 ug/ml [19]: 0%
hemolysis at 0.5 h, 64 ug/ml [20]: 2%
Activity [21]: Active
Activity [22]: Active
hemolysis at 0.5 h, 8 ug/ml [23]: 0%
R% [24]: 36.3%
hemolysis at 0.5 h, 16 ug/ml [25]: 0.6%
R% [26]: 52.4%
Activity [27]: Active
MIC [28]: 0.5 µg/mL
Papp at 5 h [29]: 0.18 ×10⁻⁶ cm/s
MIC [30]: 0.5 µg/mL
MIC [31]: 8 µg/mL
Activity [32]: Active
MIC [33]: 2 µg/mL
MIC [34]: 16 µg/mL
Papp at 5 h [35]: 0.19 ×10⁻⁶ cm/s
MIC [36]: 16 µg/mL
Activity [37]: Active
Activity [38]: Active
Activity [39]: Active
Activity [40]: Active
hemolysis at 0.5 h, 32 ug/ml [41]: 1.6%

N=C(N)NCCCCCCCCN(CCCCCCCCNC(=N)NCC1CC1)C(=O)N(CCCCCCCCNC(=N)N)CCCCCCCCNC(=N)NCC1CC1
Activity [1]: Active
Activity [2]: Active
hemolysis at 0.5 h, 1 ug/ml [3]: 0%
R% [4]: 42.4%
Activity [5]: Active
Activity [6]: Active
Activity [7]: Active
Activity [10]: Active
Activity [12]: Active
Activity [13]: Active
Activity [14]: Active
hemolysis at 0.5 h, 2 ug/ml [15]: 0.2%
Activity [16]: Active
Activity [17]: Active
Activity [18]: Active
hemolysis at 0.5 h, 4 ug/ml [19]: 0.4%
hemolysis at 0.5 h, 64 ug/ml [20]: 3.4%
Activity [21]: Active
Activity [22]: Active
hemolysis at 0.5 h, 8 ug/ml [23]: 0.8%
hemolysis at 0.5 h, 16 ug/ml [25]: 1.2%
R% [26]: 46.1%
Activity [27]: Active
Papp at 5 h [29]: 0.74 ×10⁻⁶ cm/s
Activity [32]: Active
Papp at 5 h [35]: 1.88 ×10⁻⁶ cm/s
Activity [37]: Active
Activity [38]: Active
Activity [39]: Active
Activity [40]: Active
hemolysis at 0.5 h, 32 ug/ml [41]: 2%

From ChEMBL document CHEMBL5154741, “Antibacterial alkylguanidino ureas: Molecular simplification approach, searching for membrane-based MoA” (Eur J Med Chem, 2022)
